We go through two molecules from ChEMBL document CHEMBL5154932, “Discovery of 1,6-Naphthyridin-2(1H)-one Derivatives as Novel, Potent, and Selective FGFR4 Inhibitors for the Treatment of Hepatocellular Carcinoma” (J Med Chem, 2022).

A word on the half-life: it is the time needed for the level to fall by half in the phase considered. Higher therefore signals slow decline. As a reminder, the MRT last is a mean duration of stay, worked out from the concentration-time curve. A word on the Cmax: it is the peak of the concentration-time curve. In general, Tmax refers to the time at which the peak concentration occurs. What is called bioavailability is the share of a dose that reaches the circulation, judged against a reference dose that is usually intravenous. A high value points to good availability. Usually Vd stands for the apparent volume that relates the amount in the body to the concentration in plasma or blood. A higher Vd goes with extensive tissue distribution. For orientation: AUC(0-t) means the area under the concentration-time curve up to a stated or last time point. A low value points to less exposure.

The nature of series [1]: in vitro. As to conditions: human, plasma.
The conditions of series [2]: rat, in vivo, po, 10 mg/kg.
For series [3] the following is noted: rat, in vivo, iv, 1 mg/kg.
Series [4] in a line: in vitro. The conditions noted are these: mouse, liver microsomes. (Liver microsomes are vesicles of endoplasmic reticulum, rich in cytochrome P450 enzymes.)
Series [5] in a line: in vivo. The conditions noted are these: Sprague-Dawley, rat, po, 10 mg/kg.
The conditions of series [6]: rat, in vivo, po, 10 mg/kg. The source holds these as a separate data set.
Series [7] in a line: in vitro. As to conditions: human, liver microsomes.
Series [8] is described as follows: in vitro. As to conditions: beagle, dog, plasma.
The conditions of series [9]: rat, in vivo, iv, 1 mg/kg. This is another data set of the same source.
The conditions of series [10]: rat, in vivo, po, 10 mg/kg. This is another data set of the same source.
The conditions of series [11]: rat, in vivo, po, 10 mg/kg. The source holds these as a separate data set.
The conditions of series [12]: rat, in vivo, iv, 1 mg/kg. The source holds these as a separate data set.
Series [13] is described as follows: in vitro. As to conditions: rat, plasma.
Series [14] can be described thus: in vivo. The conditions noted are these: Sprague-Dawley, rat, po, 10 mg/kg. This is another data set of the same source.
The conditions of series [15]: rat, in vivo, iv, 1 mg/kg. The source holds these as a separate data set.
For series [16] the following is noted: rat, in vivo, iv, 1 mg/kg. This is another data set of the same source.
The nature of series [17]: in vitro. The conditions noted are these: cynomolgus monkey, plasma.
The conditions of series [18]: rat, in vivo, iv, 1 mg/kg. The source holds these as a separate data set.
Series [19] can be described thus: in vitro. As to conditions: mouse, plasma.
Series [20] is described as follows: in vitro. The conditions noted are these: rat, liver microsomes.
Series [21] can be described thus: in vitro. As to conditions: cynomolgus monkey, liver microsomes.
The nature of series [22]: in vivo. As to conditions: Sprague-Dawley, rat, po, 10 mg/kg. The source holds these as a separate data set.
Series [23] can be described thus: in vivo. As to conditions: Sprague-Dawley, rat, po, 10 mg/kg. This is another data set of the same source.
Series [24] can be described thus: in vivo. As to conditions: Sprague-Dawley, rat, po, 10 mg/kg. This is another data set of the same source.
The nature of series [25]: in vitro. As to conditions: beagle, dog, liver microsomes.
A short description of series [26]: in vivo. The conditions noted are these: Sprague-Dawley, rat, po, 10 mg/kg. This is another data set of the same source.

On to `C=CC(=O)N[C@H]1CCOC[C@H]1Nc1ncc2cc(-c3c(Cl)c(OC)cc(OC)c3Cl)ccc2n1` [FISOGATINIB], for which the half-life in “in vitro [1]” is more than 4.82 h; in “in vitro [4]” it was 0.333 h; in “in vitro [7]” it was 0.42 h; in “in vitro [8]” it was more than 4.82 h; in the series “in vitro [13]”, more than 4.82 h; in “in vitro [17]”, more than 4.82 h. For the same molecule, the half-life in the series “in vitro [19]” was more than 4.82 h. In addition, the AUCt in series [2] came out at 8155.2 ng·h/mL; in [3] it was 1023.1 ng·h/mL. This molecule yielded an MRT last in “in vivo [5]” of 1.8 h. For the same molecule, the Cmax in [6] is 2570.9 ng/mL; in series [9], 1161 ng/mL. For the same molecule, the t1/2 in [10] stood at 1.2 min; in [12], 1 min. For the same molecule, in series [11], the Tmax amounted to 0.5 h. Further, the bioavailability in the series “in vivo [14]” was 79.7%. In addition, in [15], the “MRT(t)” value was 1 h. This molecule also showed a Vd in series [16] of 1.4 L/kg. In addition, the CL in series [18] turned out to be 17 mL/min/kg.
Consider `CC#CC(=O)Nc1cc(-c2cc3c(cn2)cc(-c2c(Cl)c(OC)cc(OC)c2Cl)c(=O)n3CC)c(OC)cc1N1C[C@H]2C[C@@H]1CO2`, for which the half-life is 4.77 h in “in vitro [1]”; 0.735 h in “in vitro [4]”; 0.668 h in the series “in vitro [7]”; more than 4.82 h in the series “in vitro [8]”; 1.22 h in “in vitro [20]”; 0.222 h in “in vitro [21]”. For the same molecule, the half-life is more than 4.82 h in “in vitro [13]”; more than 4.82 h in “in vitro [17]”; 0.455 h in the series “in vitro [25]”; 3.33 h in “in vitro [19]”; 2 min in “in vivo [26]”. Besides, the AUCt in series [3] was 2609.6 ng·h/mL. This molecule also yielded an MRT last in “in vivo [5]” of 2.4 h. Further, the figures for the Cmax (in series [9]; in the series “in vivo [23]”) were 1836.2 ng/mL and 3650 ng/mL, respectively. Moreover, the AUC(0-t) in “in vivo [22]” is 14400 ng·h/mL. Besides, in [12], the t1/2 worked out at 2 min. In “in vivo [14]”, the bioavailability came out at 55.4%. In addition, the “MRT(t)” value in series [15] was 1.8 h. Besides, in the series “in vivo [24]”, the Tmax is 1.4 h. In [16], this molecule registered a Vd of 1.1 L/kg. Also, the CL in series [18] was 6.7 mL/min/kg.
